From patent US8211646B1, “Methods of treating ovarian cancer by modulating SnoN” (University of South Florida, priority 2008, dated 2012)

Assays:
Assay type in all cases: cell-based
[1] = system: EVI1 and TGFβRII RNA; assay: qPCR of EVI1 and TGFβRII RNA levels; settings: 5 μM As2O3, 18 hours
Description: RNA was isolated using the RNeasy Mini Kit (Qiagen, Valencia, Calif.) from normal, benign, stage I-IV ovarian patient samples and quantitative PCR was performed. A one-step RT-PCR Taqman master mix from Applied Biosystems (Foster City, Calif.) and primers for genes in the 3q26.2 amplicon were obtained using Genebank sequences as well as from Assays on Demand (Hs00180524_m1 (SnoN/SkiL)), with the following primers and probe sets.
EVI1 Exon III—(detects both EVI1 and MDS1/EVI1):
Primers/probe sequences for SnoN (Hs00180524_m1), TGFβRII (Hs00234253_m1), and LC3 (Hs00261291_m1) were obtained from Applied Biosystems (Assays by Design).
mRNA levels were determined using the One-Step-Plus Applied Biosystems Detection System or ABI PRISM 7700 Sequence Detection System using β-actin as a reference. […] 95° C. for 15 s followed by 60° C. for 1 min Using the correlative method, RNA-fold change in expression was calculated as Ct of gene—Ct of β-actin to generate ΔCt from which ΔCt of the normal sample was subtracted. […]
The clinical inhibitors As2O3, geldanamycin (17-AAG) (dissolved in dimethylsulfoxide [DMSO]), and MG132 (dissolved in DMSO) were obtained from Sigma-Aldrich (St. Louis, Mo.), Fisher Scientific (Pittsburgh, Pa.), and Alexis Biochemicals (Farmingdale, N.Y.), respectively. […] In addition, for selected studies, RNA was isolated, quantified, and used for qPCR analysis.

[2] = system: EVI1 forms (MDS1/EVI1, EVI1, EVI1^Del190-515)
Description: (§1) Proteins were resolved on an 8%, 12%, or 15% SDS-PAGE gel (as appropriate) and electrophoretically transferred to polyvinyldifluoride (PVDF) membranes. After blocking with 5% (w/v) milk in TBST (Tris-Buffered Saline containing 0.1% Tween-20) for one hour at room temperature, membranes were incubated with primary antibodies (at appropriate dilution) overnight at 4° C., followed by extensive washing and incubation for 1 hour with the appropriate horseradish peroxidase-conjugated secondary antibodies (BioRad, Hercules, Calif.). Blots were washed extensively. A rabbit polyclonal EVI1 antibody was obtained (1:3000 dilution, St. Jude's Children's Hospital, Memphis, Tenn.). SnoN rabbit polyclonal (1:1000 dilution), PML, and p21 SMURF2 rabbit polyclonal (1:500 dilution), MRP1 mouse monoclonal (1:500 dilution) and GAPDH mouse monoclonal (1:250 dilution) antibodies were obtained from Santa Cruz Biotechnology (Santa Cruz, Calif.). TGFβRII rabbit polyclonal (1:1000 dilution) antibody was obtained from Strategic Diagnostics (Newark, Del.). Smad2/3 rabbit polyclonal (1:1000 dilution), Beclin-1 rabbit polyclonal (1:1000 dilution), AKT rabbit polyclonal (1:1000 dilution), TAK1 rabbit polyclonal (1:1000 dilution), PARP rabbit polyclonal (1:1000 dilution), Beclin-1 rabbit polyclonal (1:1000 dilution), caspase-3 rabbit polyclonal (1:1000) which detects the pro-caspase form, and ATG5 rabbit polyclonal (1:1000 dilution), LC3-II rabbit polyclonal (1:1000 dilution) antibodies were obtained from Cell Signaling Technology (Danvers, Mass.). The HSP27 mouse monoclonal (1:1000 dilution) antibody was obtained from Stressgen (Ann Arbor, Mich.). Blots were developed using chemiluminescence substrates (Amersham Piscataway, N.J. or BioRad, Hercules, Calif.). Monoclonal PAI-1 antibody was obtained from BD Pharmingen. PSMAD2, total SMAD2/3, p-ERK, p-AKT, and total AKT antibodies were obtained from Cell Signaling Technology. A monoclonal antibody against Arkadia was obtained from Abnova (Taiwan).
(§2) Densitometric analysis was performed using the HP Scanjet 5590 and the Image J program (Image Processing and Analysis in Java, NIH Image Software). Bands were selected and the intensity values were normalized to those for GAPDH. The values are presented as fold-changes relative to control siRNA treated cells.
(§3) The clinical inhibitors As2O3, geldanamycin (17-AAG) (dissolved in dimethylsulfoxide [DMSO]), and MG132 (dissolved in DMSO) were obtained from Sigma-Aldrich (St. Louis, Mo.), Fisher Scientific (Pittsburgh, Pa.), and Alexis Biochemicals (Farmingdale, N.Y.), respectively. N-acetyl-L-cysteine (NAC; dissolved in media) and Bortezomib (PS-341; dissolved in DMSO) were obtained from Fisher Scientific. 3-Methyladenine (3-MA; dissolved in media) was obtained from MP Biomedicals (Solon, Ohio). Tiron (4,5-Dihydroxy-1,3-benzenedisulfonic acid, dissolved in media) was obtained from Fisher Scientific. zVAD-fmk (dissolved in DMSO) and bafilomycin A (dissolved in DMSO) was obtained from Axxora LLC (San Diego, Calif.). Bovine catalase was obtained from Sigma-Aldrich. HBED and Mn TBAP was obtained from ENZO Life Sciences (Farmingdale, N.Y.). Ovarian cells were plated in 6-well plates at 250,000 cells per well and grown in complete medium. The following day, the cells were treated with 5 μM MG132, As2O3 (between 2-50 μM), 17-AAG (between 2-50 μM), NAC (Fisher Scientific, between 25 μM to 1 mM), Tiron (between 25 μM to 1 mM), 3-MA (0.1 mM to 10 mM), or zVAD-fmk (25 μM to 100 μM). For control cells, DMSO (a final concentration of <0.5%) was added to compare appropriately to drugs dissolved in DMSO. After the appropriate incubation time (6 or 18 hours), cell lysates were collected, protein quantified, and SDS-PAGE/western analysis was performed. In addition, for selected studies, RNA was isolated, quantified, and used for qPCR analysis.

[3] = system: immortalized and cancer ovarian cell lines; assay: Boyden chamber migration assay; settings: 5 μM As2O3 6 hours, then 18 hours in Boyden chamber
Description: FIGS. 25(A) through (C) are graphs showing arsenic trioxide induces cell death and inhibits migratory potential. HEY cells were treated for 6 hours with 5 μM As2O3 and seeded at 25,000 cells into Boyden chamber inserts for 18 hours. Cells were stained with crystal violet and counted.
TAg/hTert immortalized normal ovarian epithelial cells (TIOSE: T29 and T80) and ovarian cancer cells (OVCAR8, OVCA429, SKOV3, and HEY) were transfected with siRNA were counted 24 h post-transfection and 5000 cells were plated in each well of a 96-well plate maintained in 10% FBS. At various days, cells were fixed and stained with crystal violet solution, dissolved in Sorenson's buffer, and absorbance measured at 570 nm. To assess migration, cells transfected with siRNA were counted 24 h post-transfection and seeded into Boyden chamber inserts in serum-free media. FBS in the lower chamber media (RPMI 1640) was used as a chemoattractant for 24 h. The cells that migrated onto the lower membrane were stained with crystal violet, photographed, and counted.

[4] = system: HSP27; assay: Western analysis of HSP27; settings: HEY, 18 hours As2O3
Description: as §1, with “The HSP27 mouse monoclonal (1:1000 dilution) antibody was obtained from Stressgen (Ann Arbor, Mich.). Blots were developed using chemiluminescence substrates (Amersham Piscataway, N.J. or BioRad, Hercules, Calif.). Monoclonal PAI-1 antibody was obtained from BD Pharmingen. PSMAD2, total SMAD2/3, p-ERK, p-AKT, and total AKT antibodies were obtained from Cell Signaling Technology. A monoclonal antibody against Arkadia was obtained from Abnova (Taiwan).” left out
The clinical inhibitors As2O3, geldanamycin (17-AAG) (dissolved in dimethylsulfoxide [DMSO]), and MG132 (dissolved in DMSO) were obtained from Sigma-Aldrich (St. Louis, Mo.), Fisher Scientific (Pittsburgh, Pa.), and Alexis Biochemicals (Farmingdale, N.Y.), respectively. […] After the appropriate incubation time (6 or 18 hours), cell lysates were collected, protein quantified, and SDS-PAGE/western analysis was performed. In addition, for selected studies, RNA was isolated, quantified, and used for qPCR analysis.

[5] = system: cleaved PARP; assay: Western analysis of PARP cleavage (early apoptosis marker)
Description: as §1, §2, §3

With Arsenic trioxide [As2O3] the “decrease in EVI1 and TGFβRII RNA levels” value [1] was < 20%, the “EVI1 and EVI1^Del190-515 protein expression” value ([2]; 5 μM As2O3) was “reduced” and the MDS1/EVI1 protein expression ([2]; 5 μM As2O3) was “remained unchanged”. For the same substance, the “protein levels of EVI1 forms” value ([2]; HEY and OVCA429, 18 hours, increasing doses) was “markedly decreased”, the “reduction of migratory potential” value [3] was “more than fifty percent” and the HSP27 expression [4] was “increased”. The “dose at which PARP fragmentation dramatically increased” value ([5]; HEY and SKOV3) was 50 µM and the “dose at which PARP fragmentation dramatically increased” value ([5]; T80) was 25 µM.
